Values quoted from earlier work, collected in patent US10098891B2, “Highly concentrated stable meloxicam solutions for needleless injection” (BOEHRINGER INGELHEIM VETMEDICA GMBH, priority 2001, dated 2018).

Conditions: aqueous solution

solubility in water: does not dissolve readily in water
SMILES: Cc1cnc(NC(=O)C2=C(O)c3ccccc3S(=O)(=O)N2C)s1 [meloxicam, 4-hydroxy-2-methyl-N-(5-methyl-2-thiazolyl)-2H-1,2-benzothiazine-3-carboxamide-1,1-dioxide]
